The structures appear in SMILES notation.

Results on 37 compounds are retold here after US8299056B2 (Signal Pharmaceuticals, LLC, priority 2008, dated 2012).

For the first test, the target named is T1, Syk (Homo sapiens, UniProt P43405).
T1 construct: purchased Carna Biosciences
In words: Syk HTRF assay. It is filed as biochemical. The note with it: IC50 activity level, read-out: Activity Level. The gist of the method:
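HTRF kinase assay in HEPES pH 7.6 buffer with MgCl2, DTT and Triton X100; start mix of 87.5 μM ATP and 80 nM biotinylated peptide, 1 h at room temperature. EDTA stop, then Eu-anti-phosphotyrosine/streptavidin-DyLight 647 detection, read as 665/615 nm emission ratio.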
Background: TR-FRET usually uses a lanthanide donor and a delayed reading to cut background.
For `Oc1cc(-c2cccc3nc(Nc4ccccc4)nn23)ccn1` [Example 517, 4-(2-(phenylamino)-[1,2,4]triazolo[1,5-a]pyridin-5-yl)pyridin-2-ol], the IC50 was in the range of 1000 to 10000 nM.

Consider `Nc1n[nH]c2cc(-c3cccc4nc(Nc5ccccc5)nn34)ccc12` [Example 439, 5-(3-amino-1H-indazol-6-yl)-N-phenyl-[1,2,4]triazolo[1,5-a]pyridin-2-amine], for which the IC50 was 0.005 to 250 nM.

On to `CNC(=O)c1ccc(Nc2nc3cccc(NC4CCOC4)n3n2)cc1` (stereo not shown) [Example 441, N-methyl-4-(5-(tetrahydrofuran-3-ylamino)-[1,2,4]triazolo[1,5-a]pyridin-2-ylamino)benzamide], for which the IC50 fell in the range of 1000 to 10000 nM.

Turning to `COCc1n[nH]c2cc(Nc3nc4cccc(CC5CCOCC5)n4n3)ccc12` [Example 552, N-(3-(methoxymethyl)-1H-indazol-6-yl)-5-((tetrahydro-2H-pyran-4-yl)methyl)-[1,2,4]triazolo[1,5-a]pyridin-2-amine], the IC50 is 0.005 to 250 nM.

With `CC(C)(C)OC(=O)N1C(=O)C(C)(C)c2ccc(Nc3nc4cccc(N[C@H]5CC[C@@H](O)CC5)n4n3)cc21` [Example 545, cis-tert-butyl 6-(5-(4-hydroxycyclohexylamino)-[1,2,4]triazolo[1,5-a]pyridin-2-ylamino)-3,3-dimethyl-2-oxoindoline-1-carboxylate], the IC50 lay in the range of 0.005 to 250 nM.

In the case of `c1cc(N[C@@H]2CCCNC2)n2nc(Nc3ccc4cn[nH]c4c3)nc2c1` [Example 467, (R)-N^2-(1H-indazol-6-yl)-N^5-(piperidin-3-yl)-[1,2,4]triazolo[1,5-a]pyridin-2,5-diamine], the IC50 was 0.005 to 250 nM.

On to `c1cc(N[C@H]2CCCNC2)n2nc(Nc3ccc4nn[nH]c4c3)nc2c1` [Example 454, (S)-N^2-(1H-benzo[d][1,2,3]triazol-6-yl)-N^5-(piperidin-3-yl)-[1,2,4]triazolo[1,5-a]pyridine-2,5-diamine], for which the IC50 was 0.005 to 250 nM.

Turning to `C[C@@H](CN)Cc1cccc2nc(Nc3ccccc3)nn12` [Example 458, (R)-5-(3-amino-2-methylpropyl)-N-phenyl-[1,2,4]triazolo[1,5-a]pyridin-2-amine], the IC50 was 1000 to 10000 nM.

For `NC(=O)c1ccc(Cc2cccc3nc(Nc4ccccc4)nn23)cc1` [Example 452, 4-((2-(phenylamino)-[1,2,4]triazolo[1,5-a]pyridin-5-yl)methyl)benzamide], the IC50 fell in the range of 1000 to 10000 nM.

`COCc1n[nH]c2cc(Nc3nc4cccc(CN5CCNC(=O)C5)n4n3)ccc12` [Example 533, 4-((2-(3-(methoxymethyl)-1H-indazol-6-ylamino)-[1,2,4]triazolo[1,5-a]pyridin-5-yl)methyl)piperazin-2-one]: the IC50 lay in the range of 0.005 to 250 nM.

With `c1ccc(Nc2nc3cccc(C4CCCCC4)n3n2)cc1` [Example 525, 5-cyclohexyl-N-phenyl-[1,2,4]triazolo[1,5-a]pyridin-2-amine], the IC50 lay in the range of 1000 to 10000 nM.

As to `c1ccc(Nc2nc3cccc(NC4CCCNC4)n3n2)cc1` (stereo in doubt) [Example 497, (R)-N^2-phenyl-N^5-(piperidin-3-yl)-[1,2,4]triazolo[1,5-a]pyridin-2,5-diamine], the IC50 lay within 1000 to 10000 nM.

On to `OCCNc1cc(-c2cccc3nc(Nc4ccccc4)nn23)ccn1` [Example 443, 2-(4-(2-(phenylamino)-[1,2,4]triazolo[1,5-a]pyridin-5-yl)pyridin-2-ylamino)ethanol], for which the IC50 is 0.005 to 250 nM.

As for `c1cncc(Nc2nc3cccc(N[C@@H]4CCCNC4)n3n2)c1` [Example 434, (R)-N^5-(piperidin-3-yl)-N^2-(pyridin-3-yl)-[1,2,4]triazolo[1,5-a]pyridine-2,5-diamine], the IC50 was 1000 to 10000 nM.

Staying with this test, now noted: activity levels A-D, read-out: Activity Level (IC50 in the Syk HTRF assay).
`Cc1n[nH]c2cc(Nc3nc4cccc(C(O)C5CCOCC5)n4n3)ccc12` (stereo not shown) [Example 200, (2-(3-methyl-1H-indazol-6-ylamino)-[1,2,4]triazolo[1,5-a]pyridin-5-yl)(tetrahydro-2H-pyran-4-yl)methanol]: the IC50 fell in the range of 500 to 1000 nM.

Consider `O[C@H]1CC[C@@H](Nc2cccc3nc(Nc4cnc5[nH]ccc5c4)nn23)CC1` [Example 297, cis-4-(2-(1H-pyrrolo[2,3-b]pyridin-5-ylamino)-[1,2,4]triazolo[1,5-a]pyridin-5-ylamino)cyclohexanol], for which the IC50 lay in the range of 0.005 to 250 nM.

With `Cc1n[nH]c2cc(Nc3nc4cccc(C[C@H]5CC[C@H](O)CC5)n4n3)ccc12` (stereo in doubt) [Example 240, trans-4-((2-(3-methyl-1H-indazol-6-ylamino)-[1,2,4]triazolo[1,5-a]pyridin-5-yl)methyl)cyclohexanol], the IC50 fell in the range of 0.005 to 250 nM.

For the compound `Cc1n[nH]c2cc(Nc3nc4cccc(NCC5CCOCC5)n4n3)ccc12` [Example 220, N^2-(3-methyl-1H-indazol-6-yl)-N^5-((tetrahydro-2H-pyran-4-yl)methyl)-[1,2,4]triazolo[1,5-a]pyridin-2,5-diamine], the IC50 fell in the range of 250 to 500 nM.

Consider `Cc1cc(C)cc(Nc2nc3cccc(N[C@H]4CC[C@@H](O)CC4)n3n2)c1` [Example 314, cis-4-(2-(3,5-dimethylphenylamino)-[1,2,4]triazolo[1,5-a]pyridin-5-ylamino0)cyclohexaol], for which the IC50 was in the range of 0.005 to 250 nM.

Regarding `O[C@H]1CC[C@@H](Nc2cccc3nc(Nc4ccc5[nH]nnc5c4)nn23)CC1` [Example 237, cis-4-(2-(1H-benzo[d][1,2,3]triazolo-5-ylamino)-[1,2,4]triazolo[1,5-a]pyridin-5-ylamino)cyclohexanol], the IC50 was in the range of 0.005 to 250 nM.

For the compound `Cc1cncc(Nc2nc3cccc(N[C@H]4CC[C@@H](O)CC4)n3n2)c1` [Example 390, cis-4-(2-(5-methylpyridin-3-ylamino)-[1,2,4]triazolo[1,5-a]pyridin-5-ylamino)cyclohexanol], the IC50 is 250 to 500 nM.

With `CNC(=O)c1ccc(Nc2nc3cccc(CC4CCC(N)CC4)n3n2)cc1` (stereo not shown) [Example 262, 4-(5-((4-aminocyclohexyl)methyl)-[1,2,4]triazolo[1,5-a]pyridin-2-ylamino)-N-methylbenzamide], the IC50 was in the range of 0.005 to 250 nM.

With `OC1CCN(c2cccc3nc(Nc4ccc(C(F)(F)F)cc4)nn23)CC1` [Example 345, 1-(2-(4-(trifluoromethyl)phenylamino)-[1,2,4]triazolo[1,5-a]pyridin-5-yl)piperidin-4-ol], the IC50 fell in the range of 500 to 1000 nM.

`CC(C)(O)c1ccc(Nc2nc3cccc(N[C@H]4CC[C@@H](O)CC4)n3n2)cn1` [Example 359, cis-4-(2-(6-(2-hydroxypropan-2-yl)pyridin-3-ylamino)-[1,2,4]triazolo[1,5-a]pyridin-5-ylamino)cyclohexanol]: the IC50 lay within 1000 to 10000 nM.

For the compound `FC(F)(F)c1ccc(Nc2nc3cccc(OC4CCNCC4)n3n2)cc1` [Example 352, 5-(piperidin-4-yloxy)-N-(4-(trifluoromethyl)phenyl)-[1,2,4]triazolo[1,5-a]pyridin-2-amine], the IC50 fell in the range of 1000 to 10000 nM.

Still in this test, the particulars now being: read-out: Activity Level (Syk HTRF assay IC50).
Take `Cc1cc(Nc2nc3cccc(Cc4ccnc(O)c4)n3n2)cc2[nH]ncc12` [compound 124, 4-((2-(4-methyl-1H-indazol-6-ylamino)-[1,2,4]triazolo[1,5-a]pyridin-5-yl)methyl)pyridine-2-ol]: the IC50 is 0.005 to 250 nM.

Take `Cc1nc2ccc(Nc3nc4cccc(-c5cccc(O)c5)n4n3)cc2[nH]1` [compound 10, 3-(2-(2-methyl-1H-benzo[d]imidazol-6-ylamino)-[1,2,4]triazolo[1,5-a]pyridin-5-yl)phenol]: the IC50 lay within 0.005 to 250 nM.

In the case of `Cc1nn(C)c2cc(Nc3nc4cccc(N[C@H]5CC[C@@H](O)CC5)n4n3)cc(F)c12` [Example 149, cis-4-(2-(4-fluoro-1,3-dimethyl-1H-indazol-6-ylamino)-[1,2,4]triazolo[1,5-a]pyridin-5-ylamino)cyclohexanol], the IC50 was in the range of 0.005 to 250 nM.

Turning to `CN1C(=O)Cc2ccc(Nc3nc4cccc(CC5CCOCC5)n4n3)cc21` [compound 118, 1-methyl-6-(5-((tetrahydro-2H-pyran-4-yl)methyl)-[1,2,4]triazolo[1,5-a]pyridin-2-ylamino)indolin-2-one], the IC50 fell in the range of 1000 to 10000 nM.

For `COCc1nc2ccc(Nc3nc4cccc(Cc5ccnc(O)c5)n4n3)cc2[nH]1` [compound 130], the IC50 lay in the range of 0.005 to 250 nM.

Consider `CNC(=O)c1ccc(Nc2nc3cccc(-c4ccc(C(=O)O)cc4)n3n2)cc1` [compound 29, 4-(2-(4-(methylcarbamoyl)phenylamino)-[1,2,4]triazolo[1,5-a]pyridin-5-yl)benzoic acid], for which the IC50 was 1000 to 10000 nM.

For `CC1(C)NC(=O)c2cc(Nc3nc4cccc(CC5CCOCC5)n4n3)ccc21` [compound 113, 3,3-dimethyl-6-(5-((tetrahydro-2H-pyran-4-yl)methyl)-[1,2,4]triazolo[1,5-a]pyridin-2-ylamino)isoindolin-1-one], the IC50 lay within 1000 to 10000 nM.

On to `c1ccc(Nc2nc3cccc(-c4ccccc4)n3n2)cc1` [Example 98], for which the IC50 lay in the range of 500 to 1000 nM.

Take `CC1(C)C(=O)Nc2cc(Nc3nc4cccc(OC5CCOCC5)n4n3)ccc21` [Example 168, 3,3-dimethyl-6-(5-(tetrahydro-2H-pyran-4-yloxy)-[1,2,4]triazolo[1,5-a]pyridin-2-ylamino)indolin-2-one]: the IC50 fell in the range of 0.005 to 250 nM.

On to `NC(=O)c1ccc(Nc2nc3cccc(-c4ccccc4)n3n2)cc1F` [compound 73, 2-fluoro-4-(5-phenyl-[1,2,4]triazolo[1,5-a]pyridin-2-ylamino)benzamide], for which the IC50 is 1000 to 10000 nM.

`Cc1nc2cc(Nc3nc4cccc(-c5ccccc5)n4n3)ccc2[nH]1` [compound 46, N-(2-methyl-1H-benzo[d]imidazol-5-yl)-5-phenyl-[1,2,4]triazolo[1,5-a]pyridin-2-amine]: the IC50 was 0.005 to 250 nM.

For `CC1(C)C(=O)Nc2cc(Nc3nc4cccc(NC5CCOCC5)n4n3)ccc21` [Example 177, 3,3-dimethyl-6-(5-(tetrahydro-2H-pyran-4-ylamino)-[1,2,4]triazolo[1,5-a]pyridin-2-ylamino)indolin-2-one], the IC50 fell in the range of 0.005 to 250 nM.
